# Test results from patent publication US20260224733A1, “NANOPARTICLES DIRECTED TO CXCR4 AND USE THEREOF” (TECHNION RESEARCH & DEVELOPMENT FOUNDATION LIMITED, priority 2023, published 2026).
# Like-named read-outs stand apart in the source and are kept apart here.
# Columns and labels:
# Format in all cases: cell-based, human
# [1] = test system: RPMI8226 cells; assay: IC50 of bortezomib and ATBL in RPMI8226 cells; conditions: for IC50: read-out: half maximal inhibitory concentration (IC50)
# Method: CAG, U266 and RPMI8226 human MM cells; (American Type Culture Collection; ATCC); KMS-11 (originally from the Japanese Collection of Research Bioresource); human MM cells and MPC-11 murine myeloma cell line (kindly provided by Professor Ralph Sanderson, University of Alabama, USA) and HL60 human acute myeloid leukemia (ATCC) were used. Cells were cultured in RPMI-1640 medium supplemented with 10% fetal bovine serum (FBS), supplemented with 1% L-glutamine, 1% sodium pyruvate and 1% pen-strep-neomycin. All cells were cultured at 37° C. in 5% CO2 for no more than 6 months after being thawed from the authentic stocks.
# The half maximal inhibitory concentration (IC50) of bortezomib and ATBL was evaluated in RPMI8226 cells.
# [2] = test system: CAG cells; assay: Apoptosis assay (7AAD and Annexin V, flow cytometry); conditions: 48 h; compared to other treatments tested
# Method: (§1) In another experiment cells were incubated with 10% plasma obtained from vehicle-treated mice, bortezomib-treated mice (at the 24 h time-point) or ATBL-treated mice at 24, 72 and 168 h time-point post administration. Then cell viability and apoptosis status; healthy, early apoptosis, late apoptosis and dead, were determent using 7AAD and Annexin V staining and were used in accordance with the manufacturer's instruction. At least 50,000 events were acquired using a LSRFortessa flow cytometer (BD) and analyzed with FlowJo 10.
# (§2) To determine the therapeutic effect of ATBL compared to free bortezomib, a cell viability and apoptosis assay was used. To this end, CAG and RPMI8226 cells were treated with ATBL, bortezomib in naked liposomes, free bortezomib, AMD on empty liposomes, free AMD, empty naked liposomes and vehicle. […] However, the inventors hypothesized that in an in vivo model, ATBL will have better therapeutic efficacy due to its targeting properties.
# [3] = test system: RPMI8226 cells; assay: as above; conditions: 48 h; compared to other treatments tested
# Method: as §1, §2
compound,measurement,setting,value
"CC(C)C[C@H](NC(=O)[C@H](Cc1ccccc1)NC(=O)c1cnccn1)B(O)O [bortezomib, [(1R)-3-methyl-1-[[(2S)-3-phenyl-2-(pyrazine-2-carbonylamino)propanoyl]amino]butyl]boronic acid]",IC50,"[1]; Homo sapiens, RPMI-8226, RPMI8226 cells",11 nM
same,IC50 of bortezomib relative to ATBL,[1]; RPMI8226 cells,~2 fold
same,IC50,[1]; RPMI8226 cells,9.13 nM
same,late apoptosis,[2],significant higher late apoptosis
same,late apoptosis,[3],significant higher late apoptosis
